Experimental data published in patent publication US5318972A, “Pyrimidine nucleoside derivative and antiviral agent containing the derivative as active ingredient” (priority 1990, dated 1994).

What was measured:
[1] = system: host cells; conditions: background, clinical treatment of HIV-infection; cited from earlier work
[2] = system: HIV; test: Inhibitory activity for HIV infection (prevention of death of HIV-infected MT-4 cells); format: cell-based; conditions: Human immunodeficiency virus 1, MT4, 120 h, 5 days incubation at 37° C., concentration preventing death of 50% of HIV-infected MT-4 cells
Description: (§1) In RPMI 1640 DM culture medium containing 20 mM of Hepes buffer solution, 10% fetal bovine serum and 20 µg/ml of gentamycin, 3×10^4 MT-4 cells (human T cell clone which is destroyed by the infection of HIV) were infected with HIV in an amount of 100 times as large as expected to cause 50% infection of the cells. Immediately thereafter, a predetermined amount of sample was added to the culture medium using 50 mg/ml sample solutions in dimethyl sulfoxide and the cells were cultured at 37° C.
(§2) After 5 days of incubation, the number of existing cells was counted to determine the concentration of the compound required for preventing the death of 50% of the MT-4 cells. Separately, MT-4 cells were cultured in the same way as above except that they were not infected with HIV to determine the concentration of the compound at which 50% of the MT-4 cells were destroyed.

[3] = Cytotoxicity to uninfected MT-4 cells; format: cell-based; conditions: human, 5 days incubation at 37° C., concentration at which 50% of cells were destroyed, read-out: 50% cytotoxic concentration to MT-4 cells
Description: as §1, §2

| Compound | toxicity in the host cells [1] | IC50 [2] [µM] | CC50 at 120 h [3] [µM] |
| --- | --- | --- | --- |
| Cc1cn([C@H]2C[C@H](N=[N+]=[N-])[C@@H](CO)O2)c(=O)[nH]c1=O [3'-deoxy-3'-azidothymidine] | considerable strong toxicity | – | – |
| CCc1c(Sc2ccccc2)n(COCCO)c(=S)[nH]c1=O [Compound 1, 5-ethyl-1-[(2-hydroxyethoxy)methyl]-6-phenylthio-2-thiouracil] | – | 0.11 | 148 |
| CCc1c(Sc2cc(C)cc(C)c2)n(COCCO)c(=O)[nH]c1=O [Compound 2, 6-(3,5-dimethylphenylthio)-5-ethyl-1-[(2-hydroxyethoxy)methyl]uracil] | – | – | 149 |
| CCc1c(Sc2cc(C)cc(C)c2)n(COCCO)c(=S)[nH]c1=O [Compound 3, 6-(3,5-dimethylphenylthio)-5-ethyl-1-[(2-hydroxyethoxy)methyl]-2-thiouracil] | – | 0.0078 | 227 |
| CCc1c(Sc2cc(Cl)cc(Cl)c2)n(COCCO)c(=O)[nH]c1=O [Compound 6, 6-(3,5-dichlorophenylthio)-5-ethyl-1-[(2-hydroxyethoxy)methyl]uracil] | – | 0.014 | 51 |
| CCc1c(Sc2cc(Cl)cc(Cl)c2)n(COCCO)c(=S)[nH]c1=O [Compound 7, 6-(3,5-dichlorophenylthio)-5-ethyl-1-[(2-hydroxyethoxy)methyl]-2-thiouracil] | – | 0.043 | 64 |
| CCc1c(Cc2ccccc2)n(COCCO)c(=O)[nH]c1=O [Compound 10, 6-benzyl-5-ethyl-1-[(2-hydroxyethoxy)methyl]uracil] | – | 0.35 | 391 |
| CCc1c(Cc2cc(C)cc(C)c2)n(COCCO)c(=O)[nH]c1=O [Compound 12, 6-(3,5-dimethylbenzyl)-5-ethyl-1-[(2-hydroxyethoxy)methyl]uracil] | – | 0.013 | 280 |
| CC(C)c1c(Sc2ccccc2)n(COCCO)c(=S)[nH]c1=O [Compound 20, 1-[(2-hydroxyethoxy)methyl]-6-phenylthio-5-isopropyl-2-thiouracil] | – | 0.059 | 400 |
| Cc1cc(C)cc(Sc2c(C(C)C)c(=O)[nH]c(=O)n2COCCO)c1 [Compound 21, 6-(3,5-dimethylphenylthio)-1-[(2-hydroxyethoxy)methyl]-5-isopropyluracil] | – | – | 128 |
| Cc1cc(C)cc(Sc2c(C(C)C)c(=O)[nH]c(=S)n2COCCO)c1 [Compound 22, 6-(3,5-dimethylphenylthio)-1-[(2-hydroxyethoxy)methyl]-5-isopropyl-2-thiouracil] | – | 0.0045 | 48 |
| Cc1cc(C)cc(Cc2c(C(C)C)c(=O)[nH]c(=O)n2COCCO)c1 [Compound 31, 6-(3,5-dimethylbenzyl)-1-[(2-hydroxyethoxy)methyl]-5-isopropyluracil] | – | 0.0066 | 318 |
| CCc1c(Sc2ccccc2)n(COCCO)c(=O)[nH]c1=O [Compound 39, 5-ethyl-1-[(2-hydroxyethoxy)methyl]-6-(phenylthio)uracil] | – | 0.077 | 221 |
| CC(C)c1c(Sc2ccccc2)n(COCCO)c(=O)[nH]c1=O [Compound 40, 1-[(2-hydroxyethoxy)methyl]-6-phenylthio-5-isopropyl-uracil] | – | 0.063 | 231 |
| CCCc1c(Sc2ccccc2)n(COCCO)c(=S)[nH]c1=O [compound 3, reference compound] | – | 3.4 | 224 |
| CCCc1c(Sc2ccccc2)n(COCCO)c(=O)[nH]c1=O [compound 4, reference compound] | – | 13 | 282 |
